From patent US9708314B2, “Heterocyclic amide compound” (NISSAN CHEMICAL INDUSTRIES, LTD., priority 2013, dated 2017)

What was measured:
Format in all cases: in vivo
[1] = test system: Echinochloa oryzacola Vasing.; assay: Test Example 1: herbicidal activity, application before weed generation in submerged conditions; conditions: Application herbicide amount 320 g/ha; Seventeenth Table
In short: (§1)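 Submerged pot test: alluvial soil, 4 cm water, seeds sown mixed, 2.5-leaf rice transplanted; emulsion in water applied to surface day of sowing, dose g/ha; greenhouse 25–30° C.; 3 wk; 0–5 rating.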

[2] = test system: Monochoria vaginalis; assay: as above; conditions: Application herbicide amount 320 g/ha; Seventeenth Table
In short: as §1

[3] = test system: Scirpus juncoides; assay: as above; conditions: Application herbicide amount 320 g/ha; Seventeenth Table
In short: as §1

[4] = test system: Cyperus difformis; assay: Test Example 3: herbicidal effect by application to foliage (Wagner pot, water depth 0.1-0.5 cm); conditions: Nineteenth Table; application to foliage; application herbicide amount 320 g/ha
In short: (§2)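 Wagner pot foliar test: sow, grow 14 d (25–30 °C), spray diluted emulsion at set g/ha, score after 3 wk; 0 ≤5%, 5 ≥90% herbicidal ratio.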

[5] = test system: Echinochloa crus-galli var. crus-galli; assay: as above; conditions: Nineteenth Table; application to foliage; application herbicide amount 320 g/ha
In short: as §2

[6] = test system: Leptochloa chinensis; assay: as above; conditions: Nineteenth Table; application to foliage; application herbicide amount 320 g/ha
In short: as §2

[7] = test system: directly sowed Oryza sativa; assay: Test Example 3: effect on crop by application to foliage (Wagner pot, water depth 0.1-0.5 cm); conditions: Nineteenth Table; application to foliage; application herbicide amount 320 g/ha
In short: as §2

[8] = test system: Digitaria ciliaris; assay: Test Example 4: herbicidal effect by application to foliage (diluvial soil, plastic box); conditions: Application herbicide amount 320 g/ha
In short: (§3)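 Read-out is a 0–5 visual grade of herbicidal ratio (5: ≥90%, almost withered; 0: ≤5%) taken three weeks after treatment. Compound was applied as a diluted emulsion to stem and leaf parts of 14-day greenhouse-grown plants (25° C. to 30° C.) at rates expressed as g/ha.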

[9] = test system: Galium spurium; assay: as above; conditions: Application herbicide amount 320 g/ha
In short: as §3

Compound	A: Echinochloa oryzicola Vasing. (herbicidal effect grade) [1]	C: Monochoria vaginalis (herbicidal effect grade) [2]	B: Scirpus juncoides (herbicidal effect grade) [3]	E (herbicidal effect grade) [4]	H (herbicidal effect grade) [5]	D (herbicidal effect grade) [6]	b (effect on crop grade) [7]	F [8]	Q [9]
Cc1nnc(NC(=O)c2ccc(C(F)(F)F)n3c(C(C)[S+](C)[O-])nnc23)o1 (stereo not drawn) [1-079]	4 (Herbicidal ratio of 70% or more and less than 90%)	3 (Herbicidal ratio of 40% or more and less than 70%)	4 (Herbicidal ratio of 70% or more and less than 90%)	5 (Herbicidal ratio of 90% or more (almost completely withered))	5 (Herbicidal ratio of 90% or more (almost completely withered))	5 (Herbicidal ratio of 90% or more (almost completely withered))	5 (Herbicidal ratio of 90% or more (almost completely withered))	5 (Herbicidal ratio of 90% or more (almost completely withered))	4 (Herbicidal ratio of 70% or more and less than 90%)
Cc1nnc(NC(=O)c2ccc(C(F)(F)F)n3c(C(C)S(C)(=O)=O)nnc23)o1 (stereo not drawn) [1-080]	5 (Herbicidal ratio of 90% or more (almost completely withered))	4 (Herbicidal ratio of 70% or more and less than 90%)	4 (Herbicidal ratio of 70% or more and less than 90%)	5 (Herbicidal ratio of 90% or more (almost completely withered))	5 (Herbicidal ratio of 90% or more (almost completely withered))	5 (Herbicidal ratio of 90% or more (almost completely withered))	5 (Herbicidal ratio of 90% or more (almost completely withered))	5 (Herbicidal ratio of 90% or more (almost completely withered))	5 (Herbicidal ratio of 90% or more (almost completely withered))
Cc1nnc(NC(=O)c2ccc(C(F)(F)F)n3c(Nc4ccccc4)nnc23)o1 [1-082]	3 (Herbicidal ratio of 40% or more and less than 70%)	2 (Herbicidal ratio of 20% or more and less than 40%)	2 (Herbicidal ratio of 20% or more and less than 40%)	4 (Herbicidal ratio of 70% or more and less than 90%)	4 (Herbicidal ratio of 70% or more and less than 90%)	4 (Herbicidal ratio of 70% or more and less than 90%)	0 (Herbicidal ratio of 5% or less (almost no effect))	4 (Herbicidal ratio of 70% or more and less than 90%)	0 (Herbicidal ratio of 5% or less (almost no effect))
CSCCc1nnc2c(C(=O)Nc3nnc(C)o3)ccc(C(F)(F)F)n12 [1-083]	2 (Herbicidal ratio of 20% or more and less than 40%)	3 (Herbicidal ratio of 40% or more and less than 70%)	3 (Herbicidal ratio of 40% or more and less than 70%)	5 (Herbicidal ratio of 90% or more (almost completely withered))	5 (Herbicidal ratio of 90% or more (almost completely withered))	5 (Herbicidal ratio of 90% or more (almost completely withered))	2 (Herbicidal ratio of 20% or more and less than 40%)	5 (Herbicidal ratio of 90% or more (almost completely withered))	4 (Herbicidal ratio of 70% or more and less than 90%)
Cc1nnc(NC(=O)c2ccc(C(F)(F)F)n3c(CC[S+](C)[O-])nnc23)o1 (stereo not drawn) [1-084]	2 (Herbicidal ratio of 20% or more and less than 40%)	2 (Herbicidal ratio of 20% or more and less than 40%)	3 (Herbicidal ratio of 40% or more and less than 70%)	5 (Herbicidal ratio of 90% or more (almost completely withered))	5 (Herbicidal ratio of 90% or more (almost completely withered))	5 (Herbicidal ratio of 90% or more (almost completely withered))	2 (Herbicidal ratio of 20% or more and less than 40%)	5 (Herbicidal ratio of 90% or more (almost completely withered))	4 (Herbicidal ratio of 70% or more and less than 90%)
Cc1nnc(NC(=O)c2ccc(C(F)(F)F)n3c(CCS(C)(=O)=O)nnc23)o1 [1-085]	3 (Herbicidal ratio of 40% or more and less than 70%)	3 (Herbicidal ratio of 40% or more and less than 70%)	4 (Herbicidal ratio of 70% or more and less than 90%)	5 (Herbicidal ratio of 90% or more (almost completely withered))	5 (Herbicidal ratio of 90% or more (almost completely withered))	5 (Herbicidal ratio of 90% or more (almost completely withered))	3 (Herbicidal ratio of 40% or more and less than 70%)	5 (Herbicidal ratio of 90% or more (almost completely withered))	4 (Herbicidal ratio of 70% or more and less than 90%)
Cc1nnc(NC(=O)c2ccc(C(F)(F)F)n3c(N(C)c4ccccc4)nnc23)o1 [1-086]	5 (Herbicidal ratio of 90% or more (almost completely withered))	4 (Herbicidal ratio of 70% or more and less than 90%)	4 (Herbicidal ratio of 70% or more and less than 90%)	5 (Herbicidal ratio of 90% or more (almost completely withered))	5 (Herbicidal ratio of 90% or more (almost completely withered))	5 (Herbicidal ratio of 90% or more (almost completely withered))	0 (Herbicidal ratio of 5% or less (almost no effect))	5 (Herbicidal ratio of 90% or more (almost completely withered))	1 (Herbicidal ratio of 5% or more and less than 20%)
Cc1nnc(NC(=O)c2ccc(C(F)(F)F)n3c(NC(C)C)nnc23)o1 [1-090]	3 (Herbicidal ratio of 40% or more and less than 70%)	2 (Herbicidal ratio of 20% or more and less than 40%)	4 (Herbicidal ratio of 70% or more and less than 90%)	5 (Herbicidal ratio of 90% or more (almost completely withered))	5 (Herbicidal ratio of 90% or more (almost completely withered))	5 (Herbicidal ratio of 90% or more (almost completely withered))	0 (Herbicidal ratio of 5% or less (almost no effect))	5 (Herbicidal ratio of 90% or more (almost completely withered))	1 (Herbicidal ratio of 5% or more and less than 20%)
